Here are results for 7 compounds from patent US11986526B2, “Liquid protein formulations containing 4-ethyl-4-methylmorpholinium methylcarbonate (EMMC)” (Eagle Biologics, Inc., priority 2013, dated 2024).

Where “and” joins values, the source holds several entries; their conditions need not be identical. Equal entries are not always repeated.

Data set [1] deals with aqueous solutions of HERCEPTIN®. Briefly: Viscosity of concentrated aqueous solutions of HERCEPTIN with ionic liquids (mVROC microfluidic viscometer). In kind it is physicochemical. As to conditions: for Viscosity: 25° C., pH 7. The source says:
The protein was formulated either with phosphate buffer or with various viscosity-reducing ionic liquids at concentrations in the table listed below.

Data set [2] deals with aqueous solutions of TYSABRI®. Put plainly: Viscosity of concentrated aqueous solutions of TYSABRI with excipients (mVROC microfluidic viscometer). It counts as physicochemical. As to conditions: for Viscosity: 25° C., pH 7.
Description: (§1) All viscosities of well-mixed aqueous mAb solutions were measured using either a mVROC microfluidic viscometer (RheoSense) or a DV2T cone and plate viscometer (Brookfield; “C & P”) after a 5 minute equilibration at 25 °C (unless otherwise indicated). The mVROC viscometer was equipped with an “A” or “B” chip, each manufactured with a 50 micron channel. Typically, 0.10 mL of protein solution was back-loaded into a gastight microlab instrument syringe (Hamilton; 100 μL), affixed to the chip, and measured at multiple flow rates, approximately 20%, 40%, and 60% of the maximum pressure for each chip. […] An average absolute viscosity and standard deviation was then calculated from at least these three measurements. The C & P viscometer was equipped with a CPE40 or CPE52 spindle (cone angle of 0.8° and 3.0°, respectively) and 0.50 mL samples were measured at multiple shear rates between 2 and 400 s^−1. […] An extrapolated zero-shear viscosity was then determined from a plot of dynamic viscosity versus shear rate for the samples measured on a DV2T cone and plate viscometer. The extrapolated zero-shear viscosities reported are the average and standard deviation of at least three measurements.
The dried protein cakes, containing protein and buffer salts or viscosity-reducing ionic liquid, were reconstituted to a final volume of approximately 0.10-1.30 mL. […] Then, an appropriate amount of viscosity-reducing ionic liquid solution (pH 7.0) was added to each aliquot such that upon reconstitution with water, the final excipient concentration was 0.1-0.5 M. The protein solutions were then freeze-dried. The dried protein cakes, containing protein and viscosity-reducing ionic liquid (and a negligible amount of buffer salts) were reconstituted to a final volume of approximately 0.1 mL and viscosity-reducing ionic liquid concentration as indicated in the tables below. The final concentration of mAb in solution was determined by light absorbance at 280 nm using an experimentally determined extinction coefficient of 1.7 L/g·cm and viscosities reported were measured on a RheoSense mVROC microfluidic viscometer.
(§2) Viscosities were measured using a RheoSense mVROC microfluidic viscometer equipped with an “A” or “B” chip.
In data set [3] the test system is aqueous solutions of biosimilar AVASTIN®. Briefly: Viscosity of concentrated aqueous solutions of biosimilar AVASTIN with ionic liquids (mVROC microfluidic viscometer). As to conditions: 25° C., pH 7. It counts as physicochemical.
Description: as §1
(§3) First, Polysorbate 20 was removed using DETERGENT-OUT® TWEEN Medi Columns (G-Biosciences). […] The dried protein cakes, containing protein and buffer salts or viscosity-reducing ionic liquid, were reconstituted to a final volume of approximately 0.10-1.30 mL. […] Then, an appropriate amount of viscosity-reducing ionic liquid solution (pH 7.0) was added to each aliquot such that upon reconstitution with water, the final excipient concentration was 0.1-0.5 M. The protein solutions were then freeze-dried. The dried protein cakes, containing protein and viscosity-reducing ionic liquid (and a negligible amount of buffer salts) were reconstituted to a final volume of approximately 0.1 mL and viscosity-reducing ionic liquid concentration as indicated in the tables below. The final concentration of mAb in solution was determined by light absorbance at 280 nm using an experimentally determined extinction coefficient of 1.7 L/g·cm and viscosities reported were measured on a RheoSense mVROC microfluidic viscometer.
The test system of data set [4] is Sprague-Dawley rats. Briefly: Subcutaneous injection toxicity and irritation study (Draize evaluation scores, microscopic examination of injection sites). It counts as in vivo, rat. As to the method: Clinical observations were recorded for any pharmaco-toxicological signs at pre-dose, immediately post-dose, at 1 and 4 hours (±15 minutes) post-dose, and daily thereafter. Irritation, if any, at injection sites was scored using the Draize evaluation scores pre-dose, immediately post-dose, at 1 hour (±15 minutes) post dose, and prior to sacrifice.

The subject of data set [5] is aqueous solutions of VECTIBIX®. Put plainly: Viscosity of concentrated aqueous solutions of VECTIBIX with and without BIM (mVROC microfluidic viscometer). Particulars: 0.50M BIM, 25° C., pH 7. In kind it is physicochemical.
Data set [6] concerns aqueous solutions of biosimilar ERBITUX®. Briefly: Viscosity of concentrated aqueous solutions of biosimilar ERBITUX at various BIM concentrations (mVROC microfluidic viscometer). In kind it is physicochemical. As to conditions: for Viscosity: 25° C., pH 7.
Description: All viscosities of well-mixed aqueous mAb solutions were measured using either a mVROC microfluidic viscometer (RheoSense) or a DV2T cone and plate viscometer (Brookfield; “C & P”) after a 5 minute equilibration at 25 °C (unless otherwise indicated). The mVROC viscometer was equipped with an “A” or “B” chip, each manufactured with a 50 micron channel. Typically, 0.10 mL of protein solution was back-loaded into a gastight microlab instrument syringe (Hamilton; 100 μL), affixed to the chip, and measured at multiple flow rates, approximately 20%, 40%, and 60% of the maximum pressure for each chip. […] An average absolute viscosity and standard deviation was then calculated from at least these three measurements. The C & P viscometer was equipped with a CPE40 or CPE52 spindle (cone angle of 0.8° and 3.0°, respectively) and 0.50 mL samples were measured at multiple shear rates between 2 and 400 s^−1. Specifically, samples were measured for 30 seconds each at 22.58, 24.38, 26.25, 28.13, 30, 31.88, 45, 67.5, 90, 112.5, 135, 157.5, 180, 202.5, 247, 270, 292.5, 315, 337.5, 360, 382, 400 s^−1, starting at a shear rate that gave at least 10% torque, and continuing until instrument torque reached 100%. An extrapolated zero-shear viscosity was then determined from a plot of dynamic viscosity versus shear rate for the samples measured on a DV2T cone and plate viscometer. The extrapolated zero-shear viscosities reported are the average and standard deviation of at least three measurements.
as §3, §2
The test system of data set [7] is aqueous solutions of REMICADE®. Put plainly: Viscosity of concentrated aqueous solutions of REMICADE with and without BIM (mVROC microfluidic viscometer). In kind it is physicochemical. As to the method: A commercially-obtained biosimilar AVASTIN® containing pharmaceutical excipients (Polysorbate 20, phosphate and citrate buffers, mannitol, and NaCl) was purified. […] For samples containing 4-ethyl-4-methylmorpholinium methyl carbonate (EMMC), protein was thoroughly buffer exchanged into 2 mM PB (pH 7.0). For samples buffer exchanged into 20 mM PB (PB control samples) or 20 mM viscosity-reducing ionic liquid, the collected protein solution was freeze-dried. […] Samples buffer exchanged into 2 mM PB were first aliquoted.

Data set [8] has as its system aqueous solutions of biosimilar RITUXAN®. Put plainly: Viscosity of concentrated aqueous solutions of biosimilar RITUXAN with BIM (mVROC microfluidic viscometer). Particulars: 25° C., pH 7. It counts as physicochemical.
Data set [9] deals with respiratory syncytial virus infection. As to conditions: two Phase III clinical trials, pediatric population; cited from earlier work.
The conditions of data set [10]: studies evaluating long-term clinical outcomes; cited from earlier work.
Setting [11] is: [IL] 0.5 M, [Protein] 230 mg/mL.

“4-ethyl-4-methylmorpholinium methylcarbonate [EMMC]”: the figures for the Viscosity reduction in data set [1] (0.10 M EMMC) and in [2] (0.10 M EMMC) were about 3 fold and “up to 7 fold”, respectively. The Viscosity was 60.2 ± 4.3 cP in [1] ([IL] 0.10 M, [Protein] 253 mg/mL); 24.7 ± 0.3 cP in data set [2] ([IL] 0.1 M, [Protein] 232 mg/mL); 38.7 ± 0.3 cP in data set [3] ([IL] 0.4 M, [Protein] 217 mg/mL).

Regarding `Cl.N=C(N)NCCC[C@H](N)C(=O)O` [Arg HCl, Arginine-HCl, reference compound], the Viscosity in [2] ([IL] 0.25 M, [Protein] 228 mg/mL) was found to be 37 ± 0.1 cP.

`CCCCn1cc[n+](CCCCS(=O)(=O)[O-])c1` [BIM, 4-(3-butyl-1-imidazolio)-1-butane sulfonate]: in data set [4] (0.5 mL of 0.25 M BIM subcutaneously vs phosphate-buffered saline, throughout the study), the “Observed consequences of injections compared with saline” value was “macroscopically similar”. For the same compound, in data set [4] (0.5 mL of 0.25 M BIM subcutaneously, 1-3 daily injections), the “Irritation at injection sites” value was “no irritation to slight irritation”. Further, the “Edema scores (Draize) at injection sites” value in data set [4] (0.5 mL of 0.25 M BIM subcutaneously, 1-3 daily injections, various time points) was 0-2. Further, the “Microscopic examination of injection sites” value in data set [4] (0.5 mL of 0.25 M BIM subcutaneously, no longer evident by day 4) was “very minor, clinically insignificant, irritative effect”. Also, the Viscosity in data set [1] ([IL] 0.40 M, [Protein] 223 mg/mL) was 43.8 ± 0.4 cP; in [5] (VECTIBIX ® 233 ± 4 mg/mL), 51.1 ± 3.7 cP; in data set [5] (VECTIBIX ® 291 ± 3 mg/mL) it was 170 ± 2 cP; in [2] ([IL] 0.4 M, [Protein] 234 mg/mL), 43.6 ± 1.1 cP; in [6] ([BIM] 0.4 M, [biosimilar ERBITUX ®] 270 mg/mL), 86.7 ± 2.1 cP; in data set [6] ([BIM] 0.5 M, [biosimilar ERBITUX ®] 257 mg/mL), 75.0 ± 0.3 cP. The Viscosity was 148 ± 2 cP in data set [6] ([BIM] 0.75 M, [biosimilar ERBITUX ®] 263 mg/mL); 145 ± 2 cP in [6] ([BIM] 1.0 M, [biosimilar ERBITUX ®] 279 mg/mL); 347 ± 5 cP in data set [6] ([BIM] […], [biosimilar ERBITUX ®] 267 mg/mL); 71.2 ± 2.9 cP in data set [7] (0.50M BIM, REMICADE ® 222 ± 6 mg/mL, 25° C., pH 7); 43.9 ± 1.6 cP in data set [8] (0.40M BIM, [Protein] 191 ± 2 mg/mL); 65.4 ± 0.4 cP in data set [8] (0.40M BIM, [Protein] 203 ± 4 mg/mL). In addition, the Viscosity in data set [8] (0.40M BIM, [Protein] 213 ± 4 mg/mL) is given as 75.4 ± 1.0 cP; in data set [8] (0.50M BIM, [Protein] 213 ± 4 mg/mL), 83.9 ± 0.8 cP; in [3] ([IL] 0.2 M, [Protein] 215 mg/mL), 61.8 ± 0.3 cP; in [3] ([IL] 0.4 M, [Protein] 215 mg/mL), 47.3 ± 2.3 cP; in [3] ([IL] 0.5 M, [Protein] 215 mg/mL), 41.9 ± 0.8 cP. Moreover, the “Dependence of viscosity-lowering effect on BIM concentration” value in data set [6] (various concentrations of BIM, 0.3-[…]) is listed as “dose dependent manner up to about 0.50 M”. For the same compound, the Viscosity reduction entry in [7] (0.50 M BIM, maximum over the proteins examined (REMICADE and VECTIBIX)) is “up to 22 fold”.

`CCCCn1cc[n+](C)c1.CS(=O)(=O)[O-]` [BMI Mes, 1-butyl-3-methylimidazolium methanesulfonate]: the Viscosity amounted to 47.8 ± 1.0 cP in data set [1] ([IL] 0.40 M, [Protein] 227 mg/mL); 35.2 ± 5.0 cP in [2] ([IL] 0.4 M, [Protein] 232 mg/mL); 36.3 ± 0.2 cP in data set [3] ([IL] 0.4 M, [Protein] 214 mg/mL); 69.2 ± 5.2 cP in data set [3] ([IL] 0.4 M, [Protein] 229 mg/mL); 46.5 ± 1.7 cP in data set [3] ([IL] 0.5 M, [Protein] 221 mg/mL); 82.0 ± 3.0 cP in data set [3] (setting [11]).

Consider `CCCC[N+]1(C)CCCC1.[Cl-]` [BMP Chloride, 1-butyl-1-methylpyrrolidinium chloride], for which the Viscosity turned out to be 55.6 ± 2.0 cP in data set [1] ([IL] 0.40 M, [Protein] 210 mg/mL); 99.2 ± 2.2 cP in data set [1] ([IL] 0.40 M, [Protein] 244 mg/mL); 42.7 ± 1.9 cP in data set [2] ([IL] 0.4 M, [Protein] 249 mg/mL); 63.0 ± 8.4 cP in data set [3] ([IL] 0.4 M, [Protein] 227 mg/mL); 60.8 ± 0.1 cP in data set [3] (setting [11]).

In the case of “palivizumab: humanized mAb against an epitope in the A antigenic site of the F protein of respiratory syncytial virus”, in data set [9], the “Reduction of the risk of hospitalization due to respiratory syncytial virus infection” value was 55% and 45%.

“vedolizumab: mAb being developed by Millennium Pharmaceuticals for ulcerative colitis and Crohn's disease”: the “Patients achieving clinical remission” value in [10] is recorded as about 60%.
